Assay results as given in ChEMBL document CHEMBL2385071, “Synthesis and biological investigation of coumarin piperazine (piperidine) derivatives as potential multireceptor atypical antipsychotics” (J Med Chem, 2013).
pIC50, pKi: −log10 of the molar value.

Experiments:
[1] = biological target: 5-hydroxytryptamine receptor 2A (Rattus norvegicus, UniProt P14842); assay: Displacement of [3H]ketanserin from 5HT2A receptor in rat cerebral cortex after 15 mins by liquid scintillation counting analysis; type: tissue-based
Sequence of 5-hydroxytryptamine receptor 2A (Rattus norvegicus, UniProt P14842) (P14842 whole entry): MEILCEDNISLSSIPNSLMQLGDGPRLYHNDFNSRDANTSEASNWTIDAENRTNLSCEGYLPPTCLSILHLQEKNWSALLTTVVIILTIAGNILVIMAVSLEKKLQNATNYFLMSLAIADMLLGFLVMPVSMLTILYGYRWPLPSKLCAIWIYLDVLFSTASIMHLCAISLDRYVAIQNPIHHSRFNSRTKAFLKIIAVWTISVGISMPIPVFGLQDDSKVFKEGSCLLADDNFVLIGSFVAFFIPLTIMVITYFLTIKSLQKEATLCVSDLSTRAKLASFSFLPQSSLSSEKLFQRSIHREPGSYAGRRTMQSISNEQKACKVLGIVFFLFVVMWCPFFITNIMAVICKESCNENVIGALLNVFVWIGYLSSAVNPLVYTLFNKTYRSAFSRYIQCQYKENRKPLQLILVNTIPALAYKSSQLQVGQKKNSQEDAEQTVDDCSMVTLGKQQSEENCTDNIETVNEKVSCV

D(2) dopamine receptor [2] = biological target: D(2) dopamine receptor (Rattus norvegicus, UniProt P61169)
Sequence of D(2) dopamine receptor (Rattus norvegicus, UniProt P61169) (P61169 whole entry): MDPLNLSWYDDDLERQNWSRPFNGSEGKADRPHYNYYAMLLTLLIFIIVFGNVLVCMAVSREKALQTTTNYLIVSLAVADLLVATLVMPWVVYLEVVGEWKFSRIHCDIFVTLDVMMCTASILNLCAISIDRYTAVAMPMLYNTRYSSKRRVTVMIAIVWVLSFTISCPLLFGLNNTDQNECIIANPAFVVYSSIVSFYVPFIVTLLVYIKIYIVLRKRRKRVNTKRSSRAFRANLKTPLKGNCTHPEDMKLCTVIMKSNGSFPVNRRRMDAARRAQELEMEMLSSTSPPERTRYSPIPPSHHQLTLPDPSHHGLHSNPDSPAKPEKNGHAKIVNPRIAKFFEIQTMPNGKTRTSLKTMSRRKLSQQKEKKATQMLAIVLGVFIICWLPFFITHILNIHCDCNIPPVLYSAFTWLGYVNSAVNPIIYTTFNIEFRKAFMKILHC

[3] = biological target: T1, 5-hydroxytryptamine receptor 1A (Rattus norvegicus, UniProt P19327); assay: biochemical
T1 sequence (P19327 whole entry): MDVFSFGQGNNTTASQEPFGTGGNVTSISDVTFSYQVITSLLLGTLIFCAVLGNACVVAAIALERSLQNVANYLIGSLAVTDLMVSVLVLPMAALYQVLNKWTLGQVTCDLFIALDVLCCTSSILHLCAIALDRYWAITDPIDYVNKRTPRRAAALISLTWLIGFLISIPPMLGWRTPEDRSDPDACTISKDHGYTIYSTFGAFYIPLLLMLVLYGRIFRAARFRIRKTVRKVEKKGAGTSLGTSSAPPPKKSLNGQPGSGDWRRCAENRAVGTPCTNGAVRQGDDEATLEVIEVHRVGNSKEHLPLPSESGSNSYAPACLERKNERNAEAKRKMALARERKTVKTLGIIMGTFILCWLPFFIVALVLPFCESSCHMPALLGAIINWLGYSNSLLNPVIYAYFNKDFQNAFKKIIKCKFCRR
Description: Displacement of [3H]8-OH-DPAT from 5HT1A receptor in rat cerebral cortex after 30 mins by liquid scintillation counting analysis

[4] = biological target: T2, Alpha-1A adrenergic receptor (Homo sapiens, UniProt P35348); assay: Binding affinity to alpha-1A adrenergic receptor (unknown origin); details: read-out: pA2 (converted)
T2 sequence (P35348 whole entry): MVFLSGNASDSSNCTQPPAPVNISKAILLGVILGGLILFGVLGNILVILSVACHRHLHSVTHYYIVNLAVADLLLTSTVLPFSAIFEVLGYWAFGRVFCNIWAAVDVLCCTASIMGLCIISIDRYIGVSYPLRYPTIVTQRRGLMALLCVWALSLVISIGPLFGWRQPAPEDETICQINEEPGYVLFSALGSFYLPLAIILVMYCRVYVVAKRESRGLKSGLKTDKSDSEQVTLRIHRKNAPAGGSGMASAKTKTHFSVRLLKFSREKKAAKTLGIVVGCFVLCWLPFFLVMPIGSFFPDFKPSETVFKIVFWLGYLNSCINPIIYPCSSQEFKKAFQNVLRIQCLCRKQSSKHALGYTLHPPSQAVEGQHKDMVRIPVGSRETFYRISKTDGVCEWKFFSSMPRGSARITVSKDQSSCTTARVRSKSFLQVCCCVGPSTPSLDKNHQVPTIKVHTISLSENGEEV

[5] = biological target: T3, 5-hydroxytryptamine receptor 2A (Homo sapiens, UniProt P28223); assay: Binding affinity to 5HT2A receptor (unknown origin)
T3 sequence (P28223 whole entry): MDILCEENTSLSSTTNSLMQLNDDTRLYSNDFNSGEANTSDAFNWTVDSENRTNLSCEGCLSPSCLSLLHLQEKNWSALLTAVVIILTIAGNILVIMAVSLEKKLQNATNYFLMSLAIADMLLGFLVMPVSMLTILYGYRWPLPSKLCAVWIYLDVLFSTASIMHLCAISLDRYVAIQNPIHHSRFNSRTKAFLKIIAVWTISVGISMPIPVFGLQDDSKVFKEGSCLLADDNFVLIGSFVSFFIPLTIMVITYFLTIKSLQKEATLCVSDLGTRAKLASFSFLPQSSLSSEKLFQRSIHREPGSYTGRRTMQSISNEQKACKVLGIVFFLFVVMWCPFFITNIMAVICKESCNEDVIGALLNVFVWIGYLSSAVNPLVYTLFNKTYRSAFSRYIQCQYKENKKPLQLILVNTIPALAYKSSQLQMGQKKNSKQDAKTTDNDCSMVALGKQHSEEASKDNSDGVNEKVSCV

D(2) dopamine receptor [6] = biological target: T4, D(2) dopamine receptor (Homo sapiens, UniProt P14416)
T4 sequence (P14416 whole entry): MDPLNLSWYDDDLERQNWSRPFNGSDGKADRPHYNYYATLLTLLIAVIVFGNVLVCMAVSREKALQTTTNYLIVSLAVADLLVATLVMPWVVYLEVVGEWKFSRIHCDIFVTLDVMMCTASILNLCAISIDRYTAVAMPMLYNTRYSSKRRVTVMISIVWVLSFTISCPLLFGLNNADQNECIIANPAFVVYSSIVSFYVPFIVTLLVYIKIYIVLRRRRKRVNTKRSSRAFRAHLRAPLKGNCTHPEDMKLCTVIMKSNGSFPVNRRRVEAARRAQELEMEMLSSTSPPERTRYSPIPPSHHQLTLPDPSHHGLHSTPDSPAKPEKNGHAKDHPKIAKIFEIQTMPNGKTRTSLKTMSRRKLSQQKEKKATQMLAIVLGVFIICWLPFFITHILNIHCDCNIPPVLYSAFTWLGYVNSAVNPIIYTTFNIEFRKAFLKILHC

[7] = biological target: T3, 5-hydroxytryptamine receptor 2A; assay: Antagonist activity at 5HT2A receptor (unknown origin) expressed in CHOK1 cells coexpressing Galpha15 assessed as inhibition of agonist-induced response at 10 uM incubated for 60 mins in incubator followed by 15 mins at room temperature by FLIPR assay relative to control; type: cell-based; details: CHO-K1
[8] = biological target: T3, 5-hydroxytryptamine receptor 2A; assay: Agonist activity at 5HT2A receptor (unknown origin) expressed in CHOK1 cells coexpressing Galpha15 at 10 uM by FLIPR assay relative to control; type: cell-based; details: CHO-K1
Mus musculus [9] = assay: Toxicity in po dosed mouse assessed as induction of catalepsy; type: organism-based; details: in vivo
D(2) dopamine receptor [10] = biological target: T4, D(2) dopamine receptor; assay: Antagonist activity at dopamine D2 receptor (unknown origin) expressed in CHOK1 cells coexpressing Galpha15 assessed as inhibition of agonist-induced response at 10 uM incubated for 60 mins in incubator followed by 15 mins at room temperature by FLIPR assay relative to control; type: cell-based; details: CHO-K1
D(2) dopamine receptor [11] = biological target: T4, D(2) dopamine receptor; remark: listed apart in the source
D(2) dopamine receptor [12] = biological target: T4, D(2) dopamine receptor; assay: Agonist activity at dopamine D2 receptor (unknown origin) expressed in CHOK1 cells coexpressing Galpha15 at 10 uM by FLIPR assay relative to control; type: cell-based; details: CHO-K1
in vivo [13] = details: mouse, po
in vivo [14] = details: mouse, po; remark: listed apart in the source
Description: Therapeutic Index, ratio of ED50 for catalepsy in mouse to ED50 for antipsychotic activity in po dosed mouse assessed as reduction in apomorphine-induced climbing behavior

Mus musculus [15] = species on record: Mus musculus; assay: animal or person; details: po
Mus musculus [16] = species on record: Mus musculus; assay: animal or person; details: po; remark: listed apart in the source
Description: Antipsychotic activity in po dosed mouse assessed as reduction in apomorphine-induced climbing behavior administered for 30 mins prior to apomorphine-challenge measured at 10 to 30 mins post-dose

D(3) dopamine receptor = D(3) dopamine receptor (Homo sapiens, UniProt P35462); assay: Binding affinity to dopamine D3 receptor (unknown origin)
Sequence of D(3) dopamine receptor (P35462 whole entry): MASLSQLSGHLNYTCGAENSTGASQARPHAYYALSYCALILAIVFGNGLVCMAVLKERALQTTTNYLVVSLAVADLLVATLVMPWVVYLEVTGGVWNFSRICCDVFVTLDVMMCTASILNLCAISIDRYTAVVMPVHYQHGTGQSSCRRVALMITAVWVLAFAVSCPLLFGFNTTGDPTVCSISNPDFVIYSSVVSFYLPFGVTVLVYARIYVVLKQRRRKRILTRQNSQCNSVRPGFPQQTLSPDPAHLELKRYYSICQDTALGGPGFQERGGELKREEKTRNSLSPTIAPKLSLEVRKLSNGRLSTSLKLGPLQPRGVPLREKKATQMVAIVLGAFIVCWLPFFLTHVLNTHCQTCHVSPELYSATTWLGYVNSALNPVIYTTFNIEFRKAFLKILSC

[17] = biological target: T5, 5-hydroxytryptamine receptor 1A (Homo sapiens, UniProt P08908); assay: Binding affinity to 5HT1A receptor (unknown origin)
T5 sequence (P08908 whole entry): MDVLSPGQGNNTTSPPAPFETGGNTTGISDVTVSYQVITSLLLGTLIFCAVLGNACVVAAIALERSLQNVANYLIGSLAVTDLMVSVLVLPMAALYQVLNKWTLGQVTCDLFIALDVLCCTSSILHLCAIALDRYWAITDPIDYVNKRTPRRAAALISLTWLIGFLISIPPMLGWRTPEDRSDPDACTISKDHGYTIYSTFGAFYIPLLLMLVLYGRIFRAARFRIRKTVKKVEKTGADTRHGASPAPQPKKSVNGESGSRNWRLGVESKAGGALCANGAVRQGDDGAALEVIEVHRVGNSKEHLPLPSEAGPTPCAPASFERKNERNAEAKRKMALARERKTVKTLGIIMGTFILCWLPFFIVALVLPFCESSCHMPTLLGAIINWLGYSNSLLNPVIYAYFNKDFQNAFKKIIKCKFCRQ

SMILES	pKi [1]	pKi (D(2) dopamine receptor [2])	pKi [3]	further results
Cc1cc(OCCCCN2CCC(c3noc4cc(F)ccc34)CC2)cc2oc(=O)cc(C)c12	6.26	6.34	7.72	–
Cc1cccc(N2CCN(CCCCOc3ccc4c(C)cc(=O)oc4c3)CC2)c1C	6.59	5.86	7.32	–
COc1ccccc1N1CCN(CCCCOc2ccc3c(-c4ccccc4)cc(=O)oc3c2)CC1	< 5.00	< 5.00	< 5.00	–
COc1ccccc1N1CCN(CCCCOc2ccc3c(C)c(C)c(=O)oc3c2)CC1	7.23	< 5.00	< 5.00	–
O=c1cc(-c2cccs2)c2ccc(OCCCCN3CCC(c4noc5cc(F)ccc45)CC3)cc2o1	< 5.00	5.63	< 5.00	–
Cc1cc(=O)oc2cc(OCCCN3CCC(c4noc5cc(F)ccc45)CC3)ccc12	6.85	6.93	6.48	–
COc1ccccc1N1CCN(CCCCOc2ccc3c(C)cc(=O)oc3c2C)CC1	6.03	6.07	6.95	–
O=C1CC(c2ccccc2)c2ccc(OCCCCN3CCC(c4noc5cc(F)ccc45)CC3)cc2O1 (stereo not drawn)	6.25	6.29	< 5.00	–
Cc1cc(=O)oc2cc(OCCCCN3CCC(c4nc5ccccc5o4)CC3)ccc12	5.81	< 5.00	5.86	–
COc1ccccc1N1CCN(CCCOc2ccc3c(C)cc(=O)oc3c2)CC1	–	–	–	Kb [4]: 0.851 nM; pKi [5]: 6.76; pKi (D(2) dopamine receptor [6]): 7.93
COc1ccccc1N1CCN(CCCCOc2ccc3c(C)cc(=O)oc3c2Cl)CC1	6.23	6.92	6.82	–
O=c1cc(-c2ccccc2)c2ccc(OCC(O)CN3CCC(c4noc5cc(F)ccc45)CC3)cc2o1 (stereo not drawn)	5.80	6.01	6.16	–
CCc1cc(=O)oc2cc(OCCCCN3CCC(c4noc5cc(F)ccc45)CC3)ccc12	7.29	5.71	5.83	–
O=C(c1ccc(F)cc1)C1CCN(CCn2c(=O)[nH]c3ccccc3c2=O)CC1	–	–	–	inhibition [7]: 99.9%
CC(C)c1cc(=O)oc2cc(OCCCCN3CCC(c4noc5cc(F)ccc45)CC3)ccc12	< 5.00	5.63	< 5.00	–
Cc1ccc(S(=O)(=O)N2CCN(CCCCOc3ccc4c(C)cc(=O)oc4c3)CC2)cc1	< 5.00	5.80	5.92	–
Cc1cc(=O)oc2cc(OCCCCN3CCN(c4nsc5ccccc45)CC3)ccc12	6.98	6.75	6.95	–
NCCc1c[nH]c2ccc(O)cc12	–	–	–	Activity [8]: 100%
Cc1cc(=O)oc2cc(OCCCCN3CCN(c4cccc(C(F)(F)F)c4)CC3)ccc12	6.80	6.85	7.81	–
Cc1cc(=O)oc2cc(OCCCCN3CCN(c4ccccn4)CC3)ccc12	6.05	5.55	6.99	–
O=c1cc(-c2ccc(F)cc2)c2ccc(OCCCCN3CCC(c4noc5cc(F)ccc45)CC3)cc2o1	< 5.00	6.20	< 5.00	–
O=c1cc(C2CC2)c2ccc(OCCCCN3CCC(c4noc5cc(F)ccc45)CC3)cc2o1	< 5.00	< 5.00	< 5.00	–
CN1CCN(C2=Nc3cc(Cl)ccc3Nc3ccccc32)CC1 [CLOZAPINE]	–	–	–	ED50 (Mus musculus [9]): 92.73 mg/kg

SMILES	pKi [1]	pKi (D(2) dopamine receptor [2])	pKi [3]	further results
CCCc1cc(=O)oc2cc(OCCCCN3CCC(c4noc5cc(F)ccc45)CC3)ccc12	7.51	8.41	6.39	–
Cc1cc(=O)oc2cc(OCCCCN3CCC(c4noc5cc(F)ccc45)CC3)c(Cl)cc12	7.97	< 5.00	7.76	–
Cc1cc(=O)oc2cc(OC/C=C/CN3CCC(c4noc5cc(F)ccc45)CC3)ccc12	9.30	7.77	7.35	–
COc1ccccc1N1CCN(CCCCOc2ccc3c(CO)cc(=O)oc3c2)CC1	< 5.00	< 5.00	< 5.00	–
COc1cccc(N2CCN(CCCCOc3ccc4c(C)cc(=O)oc4c3)CC2)c1	6.33	6.81	7.05	–
Cc1cc(=O)oc2cc(OCC(O)CN3CCC(c4noc5cc(F)ccc45)CC3)ccc12 (stereo not drawn)	6.34	< 5.00	6.29	–
Cc1cc(=O)oc2cc(OCCCCN3CCC(c4nc5ccccc5s4)CC3)ccc12	6.67	6.62	6.84	–
Cc1cc(=O)oc2cc(OCCCCN3CCN(c4cccc(Cl)c4Cl)CC3)ccc12	7.00	5.73	7.94	–
Cc1cc(=O)oc2cc(OCCCCN3CCC(C(=O)c4ccc(F)cc4)CC3)ccc12	6.59	6.74	6.78	–
COc1cccc(-c2cc(=O)oc3cc(OCCCCN4CCC(c5noc6cc(F)ccc56)CC4)ccc23)c1	< 5.00	6.10	< 5.00	–
Cc1c(C)c2ccc(OCCCCN3CCC(c4noc5cc(F)ccc45)CC3)c(C)c2oc1=O	6.22	7.97	5.51	–
COc1ccc(N2CCN(CCCCOc3ccc4c(C)cc(=O)oc4c3)CC2)cc1	5.99	6.38	6.28	–
OCCN1CCN(CCCN2c3ccccc3Sc3ccc(Cl)cc32)CC1 [PERPHENAZINE]	–	–	–	inhibition (D(2) dopamine receptor [10]): 100%; pIC50 (D(2) dopamine receptor [11]): 9.52
COc1ccccc1N1CCN(CCCCOc2ccc3ccc(=O)oc3c2)CC1	5.77	6.25	6.06	–
NCCc1ccc(O)c(O)c1	–	–	–	Activity (D(2) dopamine receptor [12]): 101%
O=C(CCCN1CCC(O)(c2ccc(Cl)cc2)CC1)c1ccc(F)cc1 [HALOPERIDOL]	–	–	–	ED50 (Mus musculus [9]): 0.22 mg/kg; selectivity ratio (in vivo [13]): 1.16; selectivity ratio (in vivo [14]): 2.44; ED50 (Mus musculus [15]): 0.19 mg/kg; ED50 (Mus musculus [16]): 0.09 mg/kg
COc1ccccc1N1CCN(CCCCOc2ccc3c(C(F)(F)F)cc(=O)oc3c2)CC1	6.09	< 5.00	7.38	–
O=c1cc(CO)c2ccc(OCCCCN3CCC(c4noc5cc(F)ccc45)CC3)cc2o1	< 5.00	< 5.00	5.67	–
O=c1ccc2ccc(OCCCCN3CCC(c4noc5cc(F)ccc45)CC3)cc2o1	5.84	7.35	6.26	–
Cc1cc(=O)oc2cc(OCCCCCN3CCC(c4noc5cc(F)ccc45)CC3)ccc12	6.51	6.91	5.77	–
O=c1cc(C(F)(F)F)c2ccc(OCCCCN3CCC(c4noc5cc(F)ccc45)CC3)cc2o1	6.64	5.52	7.37	–
Cc1cc(=O)oc2cc(OCCCN3CCN(c4ccccc4)CC3)ccc12	–	–	–	pKi (D(3) dopamine receptor): 7.72; pKi [17]: 9.10; pKi (D(2) dopamine receptor [6]): 7.97
